The test system of data set [1] is A2780. The data set is described as follows: Induction of apoptosis in human A2780 cells assessed as caspase 9 activity at 1 uM after 12 hrs relative to control. The format is functional.
Data set [2] has as its system A2780. The data set can be described thus: Induction of apoptosis in human A2780 cells assessed as chromatin condensation at 1 uM after 24 hrs by acridine orange/propidium iodide staining-based fluorescence microscopy. The format is functional, cell-based.
The test system of data set [3] is A2780. The data set can be described thus: Induction of apoptosis in human A2780 cells assessed as caspase 3 activity at 1 uM after 6 hrs relative to control. The format is functional.
Data set [4] relates to A2780. The data set is described as follows: Induction of apoptosis in human A2780 cells assessed as caspase 3 activity at 1 uM after 24 hrs relative to control. The format is functional.
Data set [5] relates to A2780. The data set is described as follows: Induction of apoptosis in human A2780 cells assessed as caspase 8 activity at 1 uM after 24 hrs relative to control. The format is functional.
For data set [6], the system named is A2780. The data set can be described thus: Induction of apoptosis in human A2780 cells assessed as caspase 3 activity at 1 uM after 12 hrs relative to control. The format is functional.
In data set [7] the test system is A2780. The data set can be described thus: Induction of apoptosis in human A2780 cells assessed as caspase 8 activity at 1 uM after 6 hrs relative to control. The format is functional.
The test system of data set [8] is A2780. The data set can be described thus: Induction of apoptosis in human A2780 cells assessed as caspase 8 activity at 1 uM after 12 hrs relative to control. The format is functional.
In data set [9] the test system is A2780. The data set can be described thus: Induction of apoptosis in human A2780 cells assessed as cholesterol crystal formation after 24 hrs by acridine orange/propidium iodide staining-based fluorescence microscopy. The format is functional, cell-based.
Data set [10] has as its system A2780. The data set is described as follows: Induction of apoptosis in human A2780 cells assessed as caspase 9 activity at 1 uM after 24 hrs relative to control. The format is functional.
In data set [11] the test system is A2780. The data set can be described thus: Induction of apoptosis in human A2780 cells assessed as cholesterol crystal formation at 1 uM by acridine orange/propidium iodide staining-based fluorescence microscopy. The format is functional, cell-based. Conditions: TDE = time-dependent effect.
The subject of data set [12] is A2780. The data set is described as follows: Induction of apoptosis in human A2780 cells assessed as caspase 9 activity at 1 uM after 6 hrs relative to control. The format is functional.
Data set [13] concerns A2780. The data set is described as follows: Induction of apoptosis in human A2780 cells assessed as cell shrinkage at 1 uM after 24 hrs by acridine orange/propidium iodide staining-based fluorescence microscopy. The format is functional.
Data set [14] concerns A2780. The data set can be described thus: Induction of apoptosis in human A2780 cells assessed as caspase 8 activity at 24 uM after 24 hrs relative to control. The format is functional.
For data set [15], the system named is A2780. The data set is described as follows: Induction of apoptosis in human A2780 cells assessed as caspase 8 activity at 60 uM after 6 hrs relative to control. The format is functional.
Data set [16] relates to A2780. The data set is described as follows: Induction of apoptosis in human A2780 cells assessed as caspase 9 activity at 24 uM after 12 hrs relative to control. The format is functional.
Data set [17] relates to A2780. The data set can be described thus: Induction of apoptosis in human A2780 cells assessed as caspase 8 activity at 60 uM after 24 hrs relative to control. The format is functional.
A further data set deals with 8505C. The data set can be described thus: Cytotoxicity against human 8505C cells after 96 hrs by SRB assay. The format is functional, cell-based.
The nature of data set [18]: Cytotoxicity against human 518A2 cells after 96 hrs by SRB assay. The format is functional, cell-based. Conditions: 518A2, 96 h.
Data set [19] relates to A2780. The data set is described as follows: Induction of apoptosis in human A2780 cells assessed as caspase 3 activity at 24 uM after 6 hrs relative to control. The format is functional.
The test system of data set [20] is A2780. The data set can be described thus: Induction of apoptosis in human A2780 cells assessed as secondary necrotic cells at 24 to 60 uM after 6 to 24 hrs by annexin V/propidium iodide staining-based FACS analysis. The format is functional, cell-based.
The test system of data set [21] is A2780. The data set can be described thus: Induction of apoptosis in human A2780 cells at 2 to 6 times IC50 after 6 to 24 hrs by acridine orange/propidium iodide staining-based fluorescence microscopy. The format is functional, cell-based.
The next data set has as its system MCF7. The data set is described as follows: Cytotoxicity against human MCF7 cells after 96 hrs by SRB assay. Conditions: MCF7, 96 h. The format is functional, cell-based.
Data set [22] concerns A2780. The data set can be described thus: Induction of apoptosis in human A2780 cells assessed as caspase 3 activity at 60 uM after 24 hrs relative to control. The format is functional.
For a further data set, the system named is NIH3T3. The data set is described as follows: Cytotoxicity against mouse NIH/3T3 cells after 96 hrs by SRB assay. The format is cell-based. Conditions: NIH3T3, 96 h.
The subject of data set [23] is A2780. The data set is described as follows: Induction of apoptosis in human A2780 cells assessed as caspase 8 activity at 24 uM after 12 hrs relative to control. The format is functional.
Data set [24] deals with A2780. The data set is described as follows: Induction of apoptosis in human A2780 cells assessed as caspase 8 activity at 60 uM after 12 hrs relative to control. The format is functional.
The next data set relates to A549. The data set can be described thus: Cytotoxicity against human A549 cells after 96 hrs by SRB assay. The following applies: A549, 96 h. The format is functional, cell-based.
For data set [25], the system named is A2780. The data set is described as follows: Induction of apoptosis in human A2780 cells assessed as caspase 9 activity at 24 uM after 24 hrs relative to control. The format is functional.
The subject of data set [26] is A2780. The data set can be described thus: Induction of apoptosis in human A2780 cells assessed as caspase 9 activity at 24 uM after 6 hrs relative to control. The format is functional.
The test system of data set [27] is A2780. The data set is described as follows: Induction of apoptosis in human A2780 cells assessed as caspase 3 activity at 24 uM after 24 hrs relative to control. The format is functional.
Data set [28] deals with A2780. The data set can be described thus: Cell cycle arrest in human A2780 cells assessed as accumulation at G1/G0 phase at 12 uM after 12 hrs by annexin V/propidium iodide staining-based FACS analysis. The format is functional.
Data set [29] concerns A2780. The data set can be described thus: Induction of apoptosis in human A2780 cells assessed as cell shrinkage at 24 to 60 uM after 24 hrs by acridine orange/propidium iodide staining-based fluorescence microscopy. The format is functional.
The subject of data set [30] is A2780. The data set can be described thus: Cell cycle arrest in human A2780 cells assessed as accumulation at S phase at 24 uM after 6 hrs by annexin V/propidium iodide staining-based FACS analysis. The format is functional.
Data set [31] has as its system A2780. The data set is described as follows: Induction of apoptosis in human A2780 cells assessed as caspase 3 activity at 24 uM after 12 hrs relative to control. The format is functional.
The test system of the next data set is HT-29. The data set can be described thus: Cytotoxicity against human HT-29 cells after 96 hrs by SRB assay. The format is functional, cell-based. The following applies: HT-29, 96 h.
In data set [32] the test system is A2780. The data set is described as follows: Induction of apoptosis in human A2780 cells assessed as phosphatidylserine externalization at 60 uM after 6 hrs by annexin V/propidium iodide staining-based FACS analysis. The format is functional.
Data set [33] relates to A2780. The data set is described as follows: Induction of apoptosis in human A2780 cells assessed as chromatin condensation at 24 to 60 uM after 24 hrs by acridine orange/propidium iodide staining-based fluorescence microscopy. The format is functional, cell-based.
Data set [34] deals with A2780. The data set is described as follows: Induction of apoptosis in human A2780 cells assessed as caspase 3 activity at 60 uM after 6 hrs relative to control. The format is functional.
Data set [35] relates to A2780. The data set is described as follows: Induction of apoptosis in human A2780 cells assessed as caspase 9 activity at 60 uM after 24 hrs relative to control. The format is functional.
In data set [36] the test system is A2780. The data set can be described thus: Induction of apoptosis in human A2780 cells assessed as caspase 9 activity at 60 uM after 6 hrs relative to control. The format is functional.
For data set [37], the system named is A2780. The data set is described as follows: Induction of apoptosis in human A2780 cells assessed as DNA fragmentation at 0.024 to 0.060 mM after 6 to 24 hrs by agarose gel electrophoresis. The format is functional, cell-based.
For data set [38], the system named is A2780. The data set can be described thus: Induction of apoptosis in human A2780 cells assessed as cholesterol crystal formation at 24 to 60 uM by acridine orange/propidium iodide staining-based fluorescence microscopy. The format is functional, cell-based. The following applies: TDE = time-dependent effect.
For data set [39], the system named is A2780. The data set is described as follows: Induction of apoptosis in human A2780 cells assessed as caspase 3 activity at 60 uM after 12 hrs relative to control. The format is functional.
Data set [40] deals with A2780. The data set can be described thus: Induction of apoptosis in human A2780 cells assessed as caspase 8 activity at 24 uM after 6 hrs relative to control. The format is functional.
Data set [41] relates to A2780. The data set is described as follows: Cytotoxicity against human A2780 cells after 96 hrs by SRB assay. The format is functional, cell-based. Conditions: A2780, 96 h.
Data set [42] deals with A2780. The data set is described as follows: Induction of apoptosis in human A2780 cells assessed as caspase 9 activity at 60 uM after 12 hrs relative to control. The format is functional.
Data set [43] in a line: Solubility of the compound in buffer at 10 uM after 90 mins by HPLC analysis. The format is physicochemical.
For data set [44], the system named is A2780. The data set is described as follows: Cell cycle arrest in human A2780 cells assessed as early detachment of cells at 24 to 60 uM after 24 hrs by annexin V/propidium iodide staining-based FACS analysis. The format is functional.

This is an account of results in ChEMBL document CHEMBL3124847, “Membrane damaging activity of a maslinic acid analog” (Eur J Med Chem, 2014).

Structures are written as SMILES. Values after ≈ are worked out from the molar mass of the structure shown. Active and inactive are the calls of the source. The calls are words filed in the database; no cut-off is given here.

As for `CN[C@@H]1C[C@H]2O[C@@](C)([C@@H]1OC)n1c3ccccc3c3c4c(c5c6ccccc6n2c5c31)C(=O)NC4` [STAUROSPORINE], the Activity is 3% with A2780 [1]; 68% in the data set with A2780 [3]; 57% in the data set on A2780 [4]; 79% with A2780 [5]; 52% in the data set on A2780 [6]; 51% with A2780 [7]. In addition, the Activity in the data set with A2780 [8] was 52%; in the data set with A2780 [9], “Dose-dependent effect”; in the data set with A2780 [10] it was 33%; in the data set on A2780 [11] it was “tde”; in the data set with A2780 [12] it was 38%. The result with A2780 [2] and in the data set on A2780 [13] was Active.
Take `CC1(C)CC[C@]2(C(=O)OCCCOc3ccccc3)CC[C@]3(C)C(=CC[C@@H]4[C@@]5(C)C[C@@H](O)[C@H](O)C(C)(C)[C@@H]5CC[C@]43C)[C@@H]2C1`: the Activity was 27% in the data set with A2780 [14]; 25% in the data set on A2780 [15]; -2% with A2780 [16]; 39% in the data set on A2780 [17]; 2% with A2780 [19]; 31% with A2780 [22]. Besides, the Activity is recorded as 1% in the data set on A2780 [23]; 44% in the data set with A2780 [24]; 6% with A2780 [25]; 0% in the data set with A2780 [26]; 25% in the data set with A2780 [27]; 1% in the data set on A2780 [31]. For the same molecule, the Activity in the data set on A2780 [32] was 80%; in the data set with A2780 [34], 29%; with A2780 [9], “Dose-dependent effect”; in the data set on A2780 [35], 21%; with A2780 [36], 3%; in the data set on A2780 [38], “tde”. In addition, the Activity with A2780 [39] worked out at 37%; with A2780 [40], 2%; in the data set with A2780 [42], 2%. Further, the IC50 in the data set with 8505C came to 13.3 µM; in data set [18], 12.6 µM; in the data set with MCF7, 13.6 µM; in the data set with NIH3T3 it was 12.7 µM; in the data set on A549 it was 13.7 µM; with HT-29, 12.5 µM. Also, the IC50 in the data set with A2780 [41] is 10.6 µM. The result in the data set with A2780 [20], with A2780 [21], with A2780 [28], with A2780 [29], with A2780 [30] and in the data set with A2780 [33] was Active. The outcome in the data set on A2780 [37] and in the data set on A2780 [44] was Active. In data set [43], this molecule yielded a solubility at 1.5 h, 10 µM of 110 µM (≈ 66.5 µg/mL).
In the case of `CC1(C)CC[C@]2(C(=O)O)CC[C@]3(C)C(=CC[C@@H]4[C@@]5(C)C[C@@H](O)[C@H](O)C(C)(C)[C@@H]5CC[C@]43C)[C@@H]2C1` [MASLINIC ACID], it took 21.1 µM to reach half-maximal inhibition in the data set with NIH3T3 (IC50). This lies in the double-digit micromolar range.
